Laboratory results reported in ChEMBL document CHEMBL3132769, “Fragment growing to retain or alter the selectivity of anchored kinase hinge-binding fragments” (Medchemcomm, 2014).

Legend:
[1] = molecular target: T1, Protein kinase C zeta type (Homo sapiens) (UniProt Q05513); assay: Inhibition of human full length PKC zeta expressed in baculovirus assessed as substrate phosphorylation using fluorescence-labelled peptides as substrate at 95 uM after 90 mins by microfluidic peptide phosphorylation assay
T1 sequence (whole entry): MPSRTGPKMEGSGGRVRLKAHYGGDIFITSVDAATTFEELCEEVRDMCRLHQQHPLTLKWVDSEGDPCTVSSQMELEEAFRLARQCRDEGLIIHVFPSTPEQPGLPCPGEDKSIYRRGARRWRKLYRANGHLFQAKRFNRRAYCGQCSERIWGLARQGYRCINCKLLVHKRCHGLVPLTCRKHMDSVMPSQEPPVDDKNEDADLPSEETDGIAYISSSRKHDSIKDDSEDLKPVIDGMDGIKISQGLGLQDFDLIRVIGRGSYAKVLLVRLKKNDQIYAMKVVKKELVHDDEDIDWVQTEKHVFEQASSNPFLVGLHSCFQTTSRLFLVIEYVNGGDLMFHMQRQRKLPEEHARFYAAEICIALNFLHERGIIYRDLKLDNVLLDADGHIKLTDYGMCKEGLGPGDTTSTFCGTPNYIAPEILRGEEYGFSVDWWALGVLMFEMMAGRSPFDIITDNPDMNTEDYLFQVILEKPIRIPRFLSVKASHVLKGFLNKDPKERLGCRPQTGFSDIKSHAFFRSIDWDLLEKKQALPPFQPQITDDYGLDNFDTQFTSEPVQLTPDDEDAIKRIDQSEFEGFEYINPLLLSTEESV

[2] = molecular target: T2, Serine/threonine-protein kinase Sgk1 (Homo sapiens) (UniProt O00141); assay: Inhibition of human truncated SGK1 expressed in baculovirus assessed as substrate phosphorylation using fluorescence-labelled peptides as substrate at 0.06 uM after 90 mins by microfluidic peptide phosphorylation assay
T2 sequence (whole entry): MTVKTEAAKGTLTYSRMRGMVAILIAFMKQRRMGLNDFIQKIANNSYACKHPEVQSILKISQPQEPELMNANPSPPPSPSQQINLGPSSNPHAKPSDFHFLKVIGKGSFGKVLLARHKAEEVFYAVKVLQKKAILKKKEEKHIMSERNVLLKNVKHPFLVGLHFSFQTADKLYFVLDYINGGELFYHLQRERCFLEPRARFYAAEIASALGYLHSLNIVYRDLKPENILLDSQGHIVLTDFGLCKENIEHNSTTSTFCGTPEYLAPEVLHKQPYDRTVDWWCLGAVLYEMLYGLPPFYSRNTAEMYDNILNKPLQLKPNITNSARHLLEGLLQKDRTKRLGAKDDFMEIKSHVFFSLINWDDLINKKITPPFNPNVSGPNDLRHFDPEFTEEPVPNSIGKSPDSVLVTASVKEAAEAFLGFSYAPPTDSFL

[3] = molecular target: Casein kinase I isoform alpha (Homo sapiens) (UniProt P48729); assay: Inhibition of human full length CSNK1A1 expressed in baculovirus assessed as substrate phosphorylation using fluorescence-labelled peptides as substrate at 0.1 uM after 90 mins by microfluidic peptide phosphorylation assay
Casein kinase I isoform alpha (Homo sapiens), sequence (P48729 2-337 limits assumed): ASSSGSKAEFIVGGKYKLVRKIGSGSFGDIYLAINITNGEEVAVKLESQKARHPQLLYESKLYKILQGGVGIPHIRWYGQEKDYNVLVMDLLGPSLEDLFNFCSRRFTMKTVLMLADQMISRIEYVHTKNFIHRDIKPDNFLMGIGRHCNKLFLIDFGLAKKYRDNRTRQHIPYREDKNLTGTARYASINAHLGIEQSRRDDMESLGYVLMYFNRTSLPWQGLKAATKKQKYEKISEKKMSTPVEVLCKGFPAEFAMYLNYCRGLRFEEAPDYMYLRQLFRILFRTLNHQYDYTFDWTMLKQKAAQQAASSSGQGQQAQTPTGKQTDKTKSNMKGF

[4] = molecular target: T3, Serine/threonine-protein kinase Sgk2 (Homo sapiens) (UniProt Q9HBY8); assay: Inhibition of human full length SGK2 expressed in baculovirus assessed as substrate phosphorylation using fluorescence-labelled peptides as substrate at 420 uM after 90 mins by microfluidic peptide phosphorylation assay
T3 sequence (whole entry): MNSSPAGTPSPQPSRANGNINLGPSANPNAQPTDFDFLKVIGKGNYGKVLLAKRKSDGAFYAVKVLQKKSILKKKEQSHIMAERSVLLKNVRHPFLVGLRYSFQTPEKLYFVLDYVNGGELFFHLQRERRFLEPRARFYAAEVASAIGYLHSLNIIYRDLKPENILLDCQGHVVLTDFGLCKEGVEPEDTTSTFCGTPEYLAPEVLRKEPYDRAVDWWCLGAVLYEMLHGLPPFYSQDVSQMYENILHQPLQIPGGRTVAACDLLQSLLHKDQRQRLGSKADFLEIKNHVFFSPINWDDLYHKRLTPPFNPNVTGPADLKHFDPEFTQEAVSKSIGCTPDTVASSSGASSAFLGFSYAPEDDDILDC

[5] = molecular target: Mitogen-activated protein kinase 3 (Homo sapiens) (UniProt P27361); assay: Inhibition of human full length ERK1 expressed in Escherichia coli cell assessed as substrate phosphorylation using fluorescence-labelled peptides as substrate at 2 uM after 90 mins by microfluidic peptide phosphorylation assay
Mitogen-activated protein kinase 3 (Homo sapiens), sequence (P27361 whole entry): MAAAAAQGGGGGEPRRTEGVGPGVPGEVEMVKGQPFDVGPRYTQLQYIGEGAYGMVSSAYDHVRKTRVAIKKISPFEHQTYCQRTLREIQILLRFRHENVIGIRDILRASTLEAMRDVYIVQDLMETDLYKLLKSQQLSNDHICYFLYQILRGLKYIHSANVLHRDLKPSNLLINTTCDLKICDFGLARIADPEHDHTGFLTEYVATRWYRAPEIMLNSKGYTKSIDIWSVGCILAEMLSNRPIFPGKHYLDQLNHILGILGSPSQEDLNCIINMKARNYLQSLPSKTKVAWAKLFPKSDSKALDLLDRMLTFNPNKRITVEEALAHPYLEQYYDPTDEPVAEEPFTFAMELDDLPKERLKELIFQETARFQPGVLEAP

[6] = molecular target: Protein kinase C beta type (Homo sapiens) (UniProt P05771); assay: Inhibition of human full length PKC beta2 expressed in baculovirus assessed as substrate phosphorylation using fluorescence-labelled peptides as substrate at 8 uM after 90 mins by microfluidic peptide phosphorylation assay
Protein kinase C beta type (Homo sapiens), sequence (P05771 2-671 limits assumed): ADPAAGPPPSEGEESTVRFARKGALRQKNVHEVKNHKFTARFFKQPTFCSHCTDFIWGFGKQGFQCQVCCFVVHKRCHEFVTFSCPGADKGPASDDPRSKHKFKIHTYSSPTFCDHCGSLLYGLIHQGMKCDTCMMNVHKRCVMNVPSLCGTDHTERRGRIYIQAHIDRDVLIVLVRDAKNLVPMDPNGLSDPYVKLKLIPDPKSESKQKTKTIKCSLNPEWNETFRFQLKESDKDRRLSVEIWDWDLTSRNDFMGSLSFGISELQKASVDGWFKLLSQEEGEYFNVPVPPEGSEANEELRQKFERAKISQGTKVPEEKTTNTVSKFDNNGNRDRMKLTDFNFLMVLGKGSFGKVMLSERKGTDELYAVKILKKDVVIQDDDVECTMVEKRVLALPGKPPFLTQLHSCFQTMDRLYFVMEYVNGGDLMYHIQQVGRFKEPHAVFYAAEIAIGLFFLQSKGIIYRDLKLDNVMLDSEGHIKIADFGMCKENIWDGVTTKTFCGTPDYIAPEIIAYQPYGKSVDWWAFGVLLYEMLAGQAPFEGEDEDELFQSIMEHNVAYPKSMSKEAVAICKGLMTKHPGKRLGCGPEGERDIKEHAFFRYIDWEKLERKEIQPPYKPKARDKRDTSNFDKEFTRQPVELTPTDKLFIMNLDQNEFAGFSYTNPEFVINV

[7] = molecular target: Cyclin-dependent kinase 2 (Homo sapiens) (UniProt P24941); assay: Inhibition of human full length CDK2 expressed in baculovirus assessed as substrate phosphorylation using fluorescence-labelled peptides as substrate at 8 uM after 90 mins by microfluidic peptide phosphorylation assay
[8] = molecular target: T4, cGMP-dependent protein kinase 1 (Homo sapiens) (UniProt Q13976); assay: Inhibition of human full length PKG-1beta expressed in baculovirus assessed as substrate phosphorylation using fluorescence-labelled peptides as substrate at 1000 uM after 90 mins by microfluidic peptide phosphorylation assay
T4 sequence (whole entry): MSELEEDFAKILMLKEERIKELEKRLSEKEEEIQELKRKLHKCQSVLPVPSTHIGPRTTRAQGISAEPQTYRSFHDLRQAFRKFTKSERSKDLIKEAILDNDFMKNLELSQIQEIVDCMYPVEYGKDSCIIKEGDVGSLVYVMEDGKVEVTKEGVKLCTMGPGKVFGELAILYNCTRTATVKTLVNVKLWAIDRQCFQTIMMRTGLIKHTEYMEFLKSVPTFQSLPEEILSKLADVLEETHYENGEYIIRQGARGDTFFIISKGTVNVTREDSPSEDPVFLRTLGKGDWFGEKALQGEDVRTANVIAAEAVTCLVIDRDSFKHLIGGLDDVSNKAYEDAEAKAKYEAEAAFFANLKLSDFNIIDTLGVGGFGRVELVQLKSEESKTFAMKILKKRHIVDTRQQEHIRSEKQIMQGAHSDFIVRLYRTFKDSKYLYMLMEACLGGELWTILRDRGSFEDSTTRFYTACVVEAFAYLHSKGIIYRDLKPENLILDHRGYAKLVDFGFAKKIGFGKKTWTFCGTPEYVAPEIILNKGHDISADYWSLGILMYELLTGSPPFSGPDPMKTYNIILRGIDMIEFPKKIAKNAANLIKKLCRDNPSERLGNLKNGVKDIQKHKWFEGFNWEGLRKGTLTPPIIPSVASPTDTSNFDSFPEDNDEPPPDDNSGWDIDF

[9] = molecular target: T3, Serine/threonine-protein kinase Sgk2 (Homo sapiens); assay: Inhibition of human full length SGK2 expressed in baculovirus assessed as substrate phosphorylation using fluorescence-labelled peptides as substrate at 1000 uM after 90 mins by microfluidic peptide phosphorylation assay
[10] = molecular target: Serine/threonine-protein kinase MARK1 (Homo sapiens) (UniProt Q9P0L2); assay: Inhibition of human full length MARK1 expressed in baculovirus assessed as substrate phosphorylation using fluorescence-labelled peptides as substrate at 1000 uM after 90 mins by microfluidic peptide phosphorylation assay
Serine/threonine-protein kinase MARK1 (Homo sapiens), sequence (Q9P0L2 whole entry, looked up): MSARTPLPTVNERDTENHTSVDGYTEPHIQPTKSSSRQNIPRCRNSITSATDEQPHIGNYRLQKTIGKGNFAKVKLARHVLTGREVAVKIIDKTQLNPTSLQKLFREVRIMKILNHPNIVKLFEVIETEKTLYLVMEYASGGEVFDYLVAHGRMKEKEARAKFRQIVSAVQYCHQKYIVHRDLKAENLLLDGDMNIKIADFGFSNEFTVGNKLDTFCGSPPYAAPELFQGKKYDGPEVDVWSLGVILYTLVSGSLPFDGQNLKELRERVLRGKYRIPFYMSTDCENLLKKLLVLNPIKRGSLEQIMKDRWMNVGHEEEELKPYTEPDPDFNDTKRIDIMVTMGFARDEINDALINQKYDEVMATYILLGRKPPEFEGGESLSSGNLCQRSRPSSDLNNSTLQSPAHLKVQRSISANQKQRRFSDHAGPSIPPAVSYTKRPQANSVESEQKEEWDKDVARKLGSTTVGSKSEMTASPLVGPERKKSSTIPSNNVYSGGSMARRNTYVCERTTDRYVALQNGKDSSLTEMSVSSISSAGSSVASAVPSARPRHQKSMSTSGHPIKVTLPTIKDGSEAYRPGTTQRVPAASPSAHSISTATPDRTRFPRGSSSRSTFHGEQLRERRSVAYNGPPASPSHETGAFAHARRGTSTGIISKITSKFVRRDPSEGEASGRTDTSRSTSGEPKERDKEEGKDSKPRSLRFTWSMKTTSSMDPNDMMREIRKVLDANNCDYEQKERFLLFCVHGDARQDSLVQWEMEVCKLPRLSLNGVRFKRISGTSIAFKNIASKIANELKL

Question: How did the inhibition [1] turn out when NCCc1ccc(-c2ncnc3[nH]cnc23)cc1 was run?
Answer: 0%

Question: NC1(Cc2ccc(Cl)cc2)CCN(c2ncnc3[nH]ccc23)CC1 was tested. Which inhibition [2] did it give?
Answer: 56%

Question: How did the inhibition [3] turn out when C[C@H](CN(C)C)Oc1nc(Nc2cc3cccc(Cl)c3cn2)cnc1C#N was run?
Answer: 2.5%

Question: Which inhibition [4] does the source give for c1nc(N2CCOCC2)c2nc[nH]c2n1 here?
Answer: 76.5%

Question: Which inhibition [5] does the source give for NC1CCN(c2ncnc3[nH]ccc23)CC1 here?
Answer: 1%

Question: Which results are given for NCC1CCN(c2ncnc3[nH]ccc23)CC1?
Answer: inhibition [6]: 88.5%; inhibition [7]: 7%

Question: For c1cnc2[nH]ccc2c1, which inhibition [8] is on record?
Answer: 87%

Question: And the inhibition [9]?
Answer: 64%

Question: And the inhibition [10]?
Answer: 93.5%
